In patent US20080009418A1, “Selective Inhibitors” (Alchemia LTD., priority 2004, published 2008):

Columns and labels:
[1] = molecular target: T1, Human δ-opioid (DOP) (Homo sapiens, UniProt P41143); experiment: Radioligand binding, human δ-opioid (DOP) membranes, FlashPlate, [3H]-Bremazocine; settings: compound at 10 μM; [3H]-Bremazocine, FlashPlate
T1 construct: purchased Perkin Elmer Biosignal
Outline: (§1)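 Cloned human receptor membranes were coated onto FlashPlate wells and incubated with radioligand and compound (added from a 0.5 mM DMSO daughter plate) for 1 hour at room temperature in the dark. Scintillation counting gave percent inhibition, with DMSO defining total and reference ligand defining non-specific binding.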

[2] = molecular target: T2, Human κ-Opioid (KOP) (Homo sapiens, UniProt P41145); experiment: Radioligand binding, human κ-opioid (KOP) membranes, filtration, [3H]-Diprenorphine; settings: compound at 10 μM; [3H]-Diprenorphine, filtration
T2 construct: purchased Perkin Elmer Biosignal
Outline: (§2)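 Percent inhibition of radioligand binding measured on recombinant human membranes: NK1 with [125I]-Substance P, KOP with [3H]-Diprenorphine. Incubation 1 h at room temperature, then harvest onto 0.3% PEI-soaked filters, cold Tris-HCl pH 7.4 washes and scintillation counting; non-specific binding from reference ligand wells.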

[3] = molecular target: T3, Human Melanocortin (MC3) (Homo sapiens, UniProt P41968); experiment: Radioligand binding, human melanocortin MC3 membranes, FlashPlate, [125I]-NDP-αMSH; settings: compound at 10 μM; [125I]-NDP-αMSH, FlashPlate
T3 construct: purchased Perkin Elmer Biosignal
Outline: as §1

[4] = molecular target: T4, Human Melanocortin (MC4) (Homo sapiens, UniProt P32245); experiment: Radioligand binding, human melanocortin MC4 membranes, FlashPlate, [125I]-NDP-αMSH; settings: compound at 10 μM; [125I]-NDP-αMSH, FlashPlate
T4 construct: purchased Perkin Elmer Biosignal
Outline: as §1

[5] = molecular target: T5, Human melanocortin (MC5) (Homo sapiens, UniProt P33032); experiment: Radioligand binding, human melanocortin MC5 membranes, FlashPlate, [125I]-NDP-αMSH; settings: compound at 10 μM; [125I]-NDP-αMSH, FlashPlate
T5 construct: purchased Perkin Elmer Biosignal
Outline: as §1

[6] = molecular target: T6, Human melanin-concentrating hormone (MCH1) (Homo sapiens, UniProt Q99705); experiment: Radioligand binding, human melanin-concentrating hormone MCH1 membranes, FlashPlate, [125I]-S36057; settings: compound at 10 μM; [125I]-S36057, FlashPlate
T6 construct: purchased Perkin Elmer Biosignal
Outline: as §1

[7] = molecular target: T7, Human μ-opioid (MOP) (Homo sapiens, UniProt P35372); experiment: Radioligand binding, human μ-opioid (MOP) membranes, FlashPlate, [3H]-Naloxone; settings: compound at 10 μM; [3H]-Naloxone, FlashPlate
T7 construct: purchased Perkin Elmer Biosignal
Outline: as §1

[8] = molecular target: T8, Human neurokinin (NK1) (Homo sapiens, UniProt P25103); experiment: Radioligand binding, human neurokinin NK1 membranes, filtration, [125I]-Substance P; settings: compound at 10 μM; [125I]-Substance P, filtration
T8 construct: purchased Perkin Elmer Biosignal
Outline: as §2

[9] = molecular target: T9, Human neuropeptide Y (NPY-Y1) (Homo sapiens, UniProt P25929); experiment: Radioligand binding, human neuropeptide Y NPY-Y1 membranes, FlashPlate, [125I]-PYY; settings: compound at 10 μM; [125I]-PYY, FlashPlate
T9 construct: purchased Perkin Elmer Biosignal
T9 sequence (P25929 1-384): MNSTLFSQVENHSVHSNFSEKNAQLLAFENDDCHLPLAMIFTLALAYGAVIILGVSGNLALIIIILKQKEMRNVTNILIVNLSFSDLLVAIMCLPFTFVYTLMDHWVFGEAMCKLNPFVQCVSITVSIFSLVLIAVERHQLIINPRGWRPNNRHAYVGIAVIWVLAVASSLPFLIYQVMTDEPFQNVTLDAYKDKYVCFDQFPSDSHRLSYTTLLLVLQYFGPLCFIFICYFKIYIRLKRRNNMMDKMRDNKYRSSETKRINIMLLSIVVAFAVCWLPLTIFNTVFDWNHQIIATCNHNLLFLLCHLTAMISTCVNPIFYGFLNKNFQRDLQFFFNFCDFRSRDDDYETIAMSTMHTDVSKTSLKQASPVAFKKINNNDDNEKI
Outline: as §1

[10] = molecular target: T10, Human opioid (ORL1) (Homo sapiens, UniProt P41146); experiment: Radioligand binding, human opioid ORL1 membranes, FlashPlate, [125I]-Nociceptin; settings: compound at 10 μM; [125I]-Nociceptin, FlashPlate
T10 construct: purchased Perkin Elmer Biosignal
Outline: as §1

[11] = molecular target: T11, Mouse urotensin (mUR2) (Mus musculus, UniProt Q8VIH9); experiment: Radioligand binding, mouse urotensin mUR2 membranes, FlashPlate, [125I]-Urotensin II; settings: compound at 10 μM; [125I]-Urotensin II, FlashPlate
T11 construct: purchased Perkin Elmer Biosignal
T11 sequence (Q8VIH9 1-385): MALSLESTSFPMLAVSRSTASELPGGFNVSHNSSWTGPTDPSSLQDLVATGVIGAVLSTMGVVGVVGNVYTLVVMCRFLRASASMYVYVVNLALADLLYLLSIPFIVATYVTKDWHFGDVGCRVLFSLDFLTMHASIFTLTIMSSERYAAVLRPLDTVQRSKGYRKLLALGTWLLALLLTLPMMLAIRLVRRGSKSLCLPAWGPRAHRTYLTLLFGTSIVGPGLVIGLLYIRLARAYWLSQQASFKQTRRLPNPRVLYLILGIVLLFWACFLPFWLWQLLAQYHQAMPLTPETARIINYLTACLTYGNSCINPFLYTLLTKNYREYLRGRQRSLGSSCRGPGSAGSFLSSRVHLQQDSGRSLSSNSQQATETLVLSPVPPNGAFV
Outline: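 Cloned mouse urotensin (mUR2) receptor membranes from Perkin Elmer Biosignal were immobilized in FlashPlate microplates using a proprietary coating. Each well got 19.5 μl buffer, then 0.5 μl of DMSO, reference ligand, or compound. Adding 5 μl of [125I]-Urotensin II, diluted to 5× final concentration in binding buffer, started binding. Plates were sealed with TopSeal-A and incubated 1 hour at room temperature in the dark. Wells were counted for 30 seconds each on a TopCount after a 60-second delay, and percentage inhibition was calculated.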

T1 sequence (P41143 whole entry): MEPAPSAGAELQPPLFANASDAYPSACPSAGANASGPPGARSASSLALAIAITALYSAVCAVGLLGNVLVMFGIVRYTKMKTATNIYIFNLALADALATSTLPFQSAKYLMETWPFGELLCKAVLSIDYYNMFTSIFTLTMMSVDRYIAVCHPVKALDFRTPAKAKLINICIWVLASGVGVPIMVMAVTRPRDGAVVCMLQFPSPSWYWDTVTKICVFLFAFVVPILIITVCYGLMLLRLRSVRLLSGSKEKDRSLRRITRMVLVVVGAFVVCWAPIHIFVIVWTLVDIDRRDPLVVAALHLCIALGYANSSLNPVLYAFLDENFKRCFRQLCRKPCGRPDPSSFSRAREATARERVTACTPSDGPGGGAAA
T6 sequence (Q99705 whole entry): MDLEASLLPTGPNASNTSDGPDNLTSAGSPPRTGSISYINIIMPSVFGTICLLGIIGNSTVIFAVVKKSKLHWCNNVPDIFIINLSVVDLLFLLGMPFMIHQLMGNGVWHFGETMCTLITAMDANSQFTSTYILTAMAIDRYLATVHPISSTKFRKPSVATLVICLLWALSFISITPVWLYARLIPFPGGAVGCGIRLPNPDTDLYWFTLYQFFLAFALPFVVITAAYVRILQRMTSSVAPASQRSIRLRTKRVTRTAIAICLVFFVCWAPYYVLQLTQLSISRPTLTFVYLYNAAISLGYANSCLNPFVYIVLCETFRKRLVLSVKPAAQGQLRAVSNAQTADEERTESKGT
T5 sequence (P33032 whole entry): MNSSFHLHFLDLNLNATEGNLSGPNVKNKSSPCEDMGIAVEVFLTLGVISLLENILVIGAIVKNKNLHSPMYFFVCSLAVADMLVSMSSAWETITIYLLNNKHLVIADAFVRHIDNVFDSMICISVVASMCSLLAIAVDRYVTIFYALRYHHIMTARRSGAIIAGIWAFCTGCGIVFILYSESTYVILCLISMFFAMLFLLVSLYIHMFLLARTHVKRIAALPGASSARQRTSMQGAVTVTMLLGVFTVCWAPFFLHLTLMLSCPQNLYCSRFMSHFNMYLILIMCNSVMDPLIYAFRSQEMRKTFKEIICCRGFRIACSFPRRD
T2 sequence (P41145 whole entry): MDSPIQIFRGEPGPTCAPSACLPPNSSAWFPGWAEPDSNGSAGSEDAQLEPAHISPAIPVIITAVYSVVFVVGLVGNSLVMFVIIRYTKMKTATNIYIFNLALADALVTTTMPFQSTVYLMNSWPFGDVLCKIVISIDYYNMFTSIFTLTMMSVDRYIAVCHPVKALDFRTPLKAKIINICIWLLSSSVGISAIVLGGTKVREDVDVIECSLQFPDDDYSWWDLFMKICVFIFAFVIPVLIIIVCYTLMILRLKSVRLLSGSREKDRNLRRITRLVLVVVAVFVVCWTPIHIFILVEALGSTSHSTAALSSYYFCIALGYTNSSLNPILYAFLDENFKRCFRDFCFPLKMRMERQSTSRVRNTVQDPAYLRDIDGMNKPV
T3 sequence (P41968 whole entry): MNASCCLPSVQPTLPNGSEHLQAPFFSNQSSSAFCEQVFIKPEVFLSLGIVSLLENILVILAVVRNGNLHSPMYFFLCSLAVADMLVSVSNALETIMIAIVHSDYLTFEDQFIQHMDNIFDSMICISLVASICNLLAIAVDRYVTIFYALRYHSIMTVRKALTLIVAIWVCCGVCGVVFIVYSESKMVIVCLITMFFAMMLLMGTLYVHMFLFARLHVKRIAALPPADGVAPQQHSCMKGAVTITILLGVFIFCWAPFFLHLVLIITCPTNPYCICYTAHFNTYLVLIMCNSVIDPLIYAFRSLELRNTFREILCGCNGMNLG
T4 sequence (P32245 whole entry): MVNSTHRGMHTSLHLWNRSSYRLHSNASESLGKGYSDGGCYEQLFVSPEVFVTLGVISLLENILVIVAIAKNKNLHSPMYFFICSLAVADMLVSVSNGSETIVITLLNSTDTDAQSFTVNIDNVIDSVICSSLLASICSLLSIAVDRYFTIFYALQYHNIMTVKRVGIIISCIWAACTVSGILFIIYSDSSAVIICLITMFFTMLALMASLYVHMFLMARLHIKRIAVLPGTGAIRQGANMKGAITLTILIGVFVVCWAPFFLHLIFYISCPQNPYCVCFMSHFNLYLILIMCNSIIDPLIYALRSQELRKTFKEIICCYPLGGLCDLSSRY
T10 sequence (P41146 whole entry): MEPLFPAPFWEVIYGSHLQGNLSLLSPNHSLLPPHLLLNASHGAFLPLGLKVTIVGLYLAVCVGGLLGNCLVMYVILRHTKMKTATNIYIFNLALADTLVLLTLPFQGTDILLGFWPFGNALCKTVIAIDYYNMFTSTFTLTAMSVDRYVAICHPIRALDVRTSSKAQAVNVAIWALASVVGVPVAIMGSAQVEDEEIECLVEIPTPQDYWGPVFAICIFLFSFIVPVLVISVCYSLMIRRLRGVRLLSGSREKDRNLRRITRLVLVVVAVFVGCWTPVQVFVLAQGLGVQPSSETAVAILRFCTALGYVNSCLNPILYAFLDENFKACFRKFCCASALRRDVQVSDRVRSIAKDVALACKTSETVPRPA
T7 sequence (P35372 whole entry): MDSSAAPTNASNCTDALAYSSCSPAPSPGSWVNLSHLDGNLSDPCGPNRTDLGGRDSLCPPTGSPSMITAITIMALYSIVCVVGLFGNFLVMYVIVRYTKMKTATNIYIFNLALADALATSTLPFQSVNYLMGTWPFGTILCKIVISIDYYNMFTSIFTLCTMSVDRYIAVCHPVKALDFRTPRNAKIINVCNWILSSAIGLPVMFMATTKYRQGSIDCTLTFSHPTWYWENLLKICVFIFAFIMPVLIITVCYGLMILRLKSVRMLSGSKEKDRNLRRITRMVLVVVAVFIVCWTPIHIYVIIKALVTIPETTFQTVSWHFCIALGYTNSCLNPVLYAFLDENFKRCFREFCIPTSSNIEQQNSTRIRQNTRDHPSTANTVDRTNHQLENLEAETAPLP
T8 sequence (P25103 whole entry): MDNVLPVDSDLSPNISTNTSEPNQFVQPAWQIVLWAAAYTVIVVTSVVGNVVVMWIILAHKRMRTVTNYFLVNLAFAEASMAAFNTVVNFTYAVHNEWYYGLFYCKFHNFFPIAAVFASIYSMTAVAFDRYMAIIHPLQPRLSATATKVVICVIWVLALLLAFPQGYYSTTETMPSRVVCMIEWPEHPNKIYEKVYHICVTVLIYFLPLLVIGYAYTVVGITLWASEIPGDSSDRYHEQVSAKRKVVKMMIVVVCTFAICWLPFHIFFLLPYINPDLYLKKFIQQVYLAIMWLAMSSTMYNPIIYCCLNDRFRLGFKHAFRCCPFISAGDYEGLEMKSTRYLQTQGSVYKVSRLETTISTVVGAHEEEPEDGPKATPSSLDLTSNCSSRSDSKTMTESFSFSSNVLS

Compound	A1: inhibition of radioligand binding [1]	A2: inhibition of radioligand binding [2]	A3: inhibition of radioligand binding [3]	A4: inhibition of radioligand binding [4]	A5: inhibition of radioligand binding [5]	A6: inhibition of radioligand binding [6]	A7: inhibition of radioligand binding [7]	A8: inhibition of radioligand binding [8]	A9: inhibition of radioligand binding [9]	A10: inhibition of radioligand binding [10]	A11: inhibition of radioligand binding [11]
COCC1OC(OCc2ccccc2)C(NC(=O)CCN)C(OCc2ccc3ccccc3c2)C1O (stereo not drawn) [compound 190]	− (“−” indicates less than 50% inhibition at 10 μM)	− (“−” indicates less than 50% inhibition at 10 μM)	− (“−” indicates less than 50% inhibition at 10 μM)	− (“−” indicates less than 50% inhibition at 10 μM)	+ (“+” indicates greater than 50% inhibition at 10 μM)	− (“−” indicates less than 50% inhibition at 10 μM)	− (“−” indicates less than 50% inhibition at 10 μM)	+ (“+” indicates greater than 50% inhibition at 10 μM)	− (“−” indicates less than 50% inhibition at 10 μM)	− (“−” indicates less than 50% inhibition at 10 μM)	− (“−” indicates less than 50% inhibition at 10 μM)
COCC1OC(OCc2ccccc2)C(NC(=O)CCNC(=N)N)C(OCc2ccc3ccccc3c2)C1O (stereo not drawn) [compound 191]	− (“−” indicates less than 50% inhibition at 10 μM)	− (“−” indicates less than 50% inhibition at 10 μM)	− (“−” indicates less than 50% inhibition at 10 μM)	+ (“+” indicates greater than 50% inhibition at 10 μM)	+ (“+” indicates greater than 50% inhibition at 10 μM)	+ (“+” indicates greater than 50% inhibition at 10 μM)	− (“−” indicates less than 50% inhibition at 10 μM)	+ (“+” indicates greater than 50% inhibition at 10 μM)	− (“−” indicates less than 50% inhibition at 10 μM)	− (“−” indicates less than 50% inhibition at 10 μM)	− (“−” indicates less than 50% inhibition at 10 μM)
COCC1OC(OCc2ccccc2)C(NC(=O)CCCN)C(OCc2ccc3ccccc3c2)C1O (stereo not drawn) [compound 192]	− (“−” indicates less than 50% inhibition at 10 μM)	− (“−” indicates less than 50% inhibition at 10 μM)	− (“−” indicates less than 50% inhibition at 10 μM)	− (“−” indicates less than 50% inhibition at 10 μM)	+ (“+” indicates greater than 50% inhibition at 10 μM)	− (“−” indicates less than 50% inhibition at 10 μM)	− (“−” indicates less than 50% inhibition at 10 μM)	+ (“+” indicates greater than 50% inhibition at 10 μM)	− (“−” indicates less than 50% inhibition at 10 μM)	− (“−” indicates less than 50% inhibition at 10 μM)	− (“−” indicates less than 50% inhibition at 10 μM)
COCC1OC(OCc2ccccc2)C(NC(=O)CCCNC(=N)N)C(OCc2ccc3ccccc3c2)C1O (stereo not drawn) [compound 193]	− (“−” indicates less than 50% inhibition at 10 μM)	− (“−” indicates less than 50% inhibition at 10 μM)	+ (“+” indicates greater than 50% inhibition at 10 μM)	+ (“+” indicates greater than 50% inhibition at 10 μM)	+ (“+” indicates greater than 50% inhibition at 10 μM)	+ (“+” indicates greater than 50% inhibition at 10 μM)	− (“−” indicates less than 50% inhibition at 10 μM)	+ (“+” indicates greater than 50% inhibition at 10 μM)	− (“−” indicates less than 50% inhibition at 10 μM)	− (“−” indicates less than 50% inhibition at 10 μM)	− (“−” indicates less than 50% inhibition at 10 μM)
COCC1OC(OCc2ccc(Cl)cc2)C(NC(=O)CNC(=N)N)C(OCc2ccccc2)C1O (stereo not drawn) [compound 194]	− (“−” indicates less than 50% inhibition at 10 μM)	− (“−” indicates less than 50% inhibition at 10 μM)	− (“−” indicates less than 50% inhibition at 10 μM)	+ (“+” indicates greater than 50% inhibition at 10 μM)	+ (“+” indicates greater than 50% inhibition at 10 μM)	− (“−” indicates less than 50% inhibition at 10 μM)	− (“−” indicates less than 50% inhibition at 10 μM)	+ (“+” indicates greater than 50% inhibition at 10 μM)	− (“−” indicates less than 50% inhibition at 10 μM)	− (“−” indicates less than 50% inhibition at 10 μM)	− (“−” indicates less than 50% inhibition at 10 μM)
COCC1OC(OCc2ccc(Cl)cc2)C(NC(=O)CCN)C(OCc2ccccc2)C1O (stereo not drawn) [compound 195]	− (“−” indicates less than 50% inhibition at 10 μM)	− (“−” indicates less than 50% inhibition at 10 μM)	− (“−” indicates less than 50% inhibition at 10 μM)	− (“−” indicates less than 50% inhibition at 10 μM)	− (“−” indicates less than 50% inhibition at 10 μM)	− (“−” indicates less than 50% inhibition at 10 μM)	− (“−” indicates less than 50% inhibition at 10 μM)	+ (“+” indicates greater than 50% inhibition at 10 μM)	− (“−” indicates less than 50% inhibition at 10 μM)	− (“−” indicates less than 50% inhibition at 10 μM)	− (“−” indicates less than 50% inhibition at 10 μM)
